What is called IC50 is the concentration that gives 50% inhibition.

A value given as a limit tells only on which side of the number the result lay.

Data set [1] relates to Plasmodium falciparum. Put plainly: Antimalarial activity against Plasmodium falciparum 3D7 assessed as reduction in parasitemia measured after 72 hrs by SYBR Green I dye based fluorescence assay. It counts as functional, organism-based. As to conditions: 3D7, 72 h.
In data set [2] the test system is Plasmodium falciparum. Briefly: Antimalarial activity against CQ/SDX/PYR/MQ/CYC resistant Plasmodium falciparum Dd2 assessed as reduction in parasitemia measured after 72 hrs by SYBR Green I dye based fluorescence assay. In kind it is functional, organism-based. Particulars: Dd2, 72 h.
Data set [3] can be described thus: Resistance index, ratio of IC50 for antimalarial activity against CQ/SDX/PYR/MQ/CYC resistant Plasmodium falciparum Dd2 to IC50 for antimalarial activity against Plasmodium falciparum 3D7. In kind it is functional.
The test system of data set [4] is Plasmodium falciparum. Briefly: Antimalarial activity against CQ/PYR/ATO resistant Plasmodium falciparum TM90C6B assessed as reduction in parasitemia measured after 72 hrs by SYBR Green I dye based fluorescence assay. In kind it is functional, organism-based.
The nature of data set [5]: Resistance index, ratio of IC50 for antimalarial activity against CQ/PYR/ATO resistant Plasmodium falciparum TM90C6B to IC50 for antimalarial activity against Plasmodium falciparum 3D7. It counts as functional.
The test system of data set [6] is Plasmodium falciparum. Put plainly: Antimalarial activity against MMV848 resistant Plasmodium falciparum 3D7r_MMV848 assessed as reduction in parasitemia measured after 72 hrs by SYBR Green I dye based fluorescence assay. As to conditions: 3D7r_MMV848, 72 h. It counts as functional, organism-based.
Data set [7] in a line: Resistance index, ratio of IC50 for antimalarial activity against MMV848 resistant Plasmodium falciparum 3D7r_MMV848 to IC50 for antimalarial activity against Plasmodium falciparum 3D7. It counts as functional.
A short description of data set [8]: Cytotoxicity against human HepG2 cells assessed as inhibition of cell growth incubated for 72 hrs by MTT assay. In kind it is toxicity, cell-based. (In general: Tetrazolium dyes change colour on reduction, which living cells bring about.)

As for `O=c1occ(-c2ccc(O)cc2)c2cc(O)ccc12`, the concentration for half-maximal inhibition (IC50) in the data set with Plasmodium falciparum [1] is 19 µM; with Plasmodium falciparum [2], 37 µM; in the data set on Plasmodium falciparum [4], 19 µM; in the data set with Plasmodium falciparum [6] it was 23 µM. Further, the Ratio IC50 in data set [3] came to 1.9; in data set [5], 1; in data set [7] it was 1.2. For the same molecule, the IC50 at 72 h in data set [8] is greater than 100 µM.

Regarding `C[C@@H]1CC[C@H]2[C@@H](C)C(=O)O[C@@H]3O[C@@]4(C)CC[C@@H]1[C@]32OO4` [ARTEMISININ], the half-inhibitory concentration (IC50) with Plasmodium falciparum [1] was determined as 0.006 µM; in the data set with Plasmodium falciparum [2] it was 0.011 µM; in the data set on Plasmodium falciparum [6], 0.013 µM. The Ratio IC50 in data set [3] is 2; in data set [5], 1; in data set [7], 2.

With `CC(C)c1c(C(=O)Nc2ccccc2)c(-c2ccccc2)c(-c2ccc(F)cc2)n1CC[C@@H](O)C[C@@H](O)CC(=O)O` [ATORVASTATIN], the IC50 in the data set on Plasmodium falciparum [4] is greater than 1 µM. Moreover, in data set [5], the Ratio IC50 is greater than 1430.

Regarding `CCc1nc(N)nc(N)c1-c1ccc(Cl)cc1` [PYRIMETHAMINE], the IC50 with Plasmodium falciparum [1] was 0.06 µM; with Plasmodium falciparum [2] it was greater than 10 µM. Further, the Ratio IC50 in data set [3] is greater than 166.
